Laboratory results reported in US10639313B2, “Compound for inhibition of delta-5-desaturase (D5D) and treatment of cancer and inflammation” (NDSU Research Foundation, priority 2017, dated 2020).
Where “and” joins values, the source holds several entries; their conditions need not be identical. Equal values may be shown once. Read-outs that look alike come from different tables or passages of the source. One block for each molecule: values may come before it.

What was measured:
HCA-7/C29 cells = assay: 8-HOA formation from cellular COX-2-catalyzed DGLA peroxidation (GC/MS) in HCA-7/C29; assay type: cell-based, human; conditions: 10 μM compound, DGLA-enriched medium, threshold >0.5 μM in 10^6 cells, control 0.33
Procedure: (§1) Colony formation assay was conducted in a total of three human cancer cell lines featuring high levels of COX-2, including HCA-7 (colon cancer), A549 (non-small cell lung cancer), BxPC-3 (pancreatic cancer), upon treatment of iminodibenzyl (10 μM). GC/MS was used to measure 8-HOA formation as described elsewhere.

D5D = molecular target: T1, D5D (Rattus norvegicus, UniProt Q920R3); assay: Rat liver microsomal assay, conversion of DGLA to AA by D5D; assay type: biochemical
T1 construct: Rat liver microsomal assay was conducted

HCA-7 xenograft tumor = assay: Xenograft tumor model, nude mice bearing HCA-7; assay type: in vivo; conditions: HCA-7 tumor; for [8-HOA]: control 0.03
Procedure: (§2) About two million of selected cancer cells, suspended in 50 μL of PBS, were implanted into hind flank of nude mice. Feeding with standard diet for two weeks after the cell implantation (to allow tumors reach the certain size), mice were then placed into the treatment groups. Twenty mice were randomly divided to four experimental groups (vehicle control, DGLA, […] inhibitor, and DGLA+D5D inhibitor combination) in each treatment regime to assess their anti-tumor responses. Two treatment regimes (e.g., treatment applied on every other day or every day up to 4-week) were assessed for their anti-tumor responses in HAC-7 and A459 tumor models. Every day treatment plan was listed in FIG. 9 as xenograft models and treatment example. Tumor growth was monitored twice a week using a digital caliper as well as via ultrasound image system for treatment outcome. Tumor volume was calculated: V=L×W2/2. At the endpoint (4-week treatment), the mice were euthanized, and the tumor tissues were collected, weighted, conducted for other analysis.

[1] = tested on: Lewis Lung Carcinoma Cells (LLC); assay: Lewis Lung Carcinoma primary tumor growth and metastatic lung tumor formation; assay type: in vivo, C57/B6 mice; conditions: for Primary Tumor size (mm^3) / 8-HOA (μM) in Blood / Reduced Tumor Growth vs. V.C.: dose every day; for Primary Tumor size (mm^3) / Reduced Tumor Growth vs. V.C.: DGLA 5 mg/mouse, iminodibenzyl i.p. 15 mg/kg; for 8-HOA (μM) in Blood: vehicle 0.015; for Reduced Tumor Growth vs. V.C.: primary tumor; for mice that developed metastatic lung tumor: four-week treatment, Day 28 (combination up to Day 31)
Procedure: One million Lewis Lung Carcinoma Cells (LLC,), suspended in 50 μL of PBS, were implanted into front/hind flanks (0.5 million each) of C57/B6 mice. A total of twenty […] mice were divided to four groups: six in vehicle control, six in DGLA+iminodibenzyl combination, three in DGLA (oral), and five in iminodibenzyl (i.p.) group. Every day treatment regimen was started one-week after LLC cells implanted into mice blank. Primary tumor growth was monitored twice a week using a digital caliper as well as via ultrasound image system for treatment outcome. Tumor volume was calculated: […] Tumor Growth Reduction Rate (%, Table 8) in each experiment after 4-week treatment was used to assess their associated anti-tumor responses: […]

A549 xenograft tumor = assay: Xenograft tumor model, nude mice bearing A549; assay type: in vivo; conditions: for Tumor Growth Reduction % (vs. Control) / [8-HOA]: A549 (printed A459) tumor, every day, 4-week, DGLA 5 mg/mouse oral, iminodibenzyl 15 mg/kg i.p.; for [8-HOA]: control 0.02
Procedure: as §2, with “analysis. Tumor Growth Reduction Rate (%, Tables 5, 7) in each experiment after 4-week treatment was used to assess their associated anti-tumor responses: […]” for “analysis.”

BxPC-3 xenograft tumor = assay: Xenograft tumor model, nude mice bearing BxPC-3; assay type: in vivo; conditions: BxPC-3 tumor, twice/week up to 4-week, gemcitabine 30 mg/kg, DGLA 8 mg/mouse, iminodibenzyl 25 mg/kg
[2] = tested on: A549 (non-small cell lung cancer); assay: Colony formation assay / cell survival, A549; assay type: cell-based, human; conditions: A549 (A-495 [sic]), 10 μM, DGLA-enriched media, control 100%
Procedure: as §1

[3] = tested on: BxPC-3 (pancreatic cancer); assay: Colony formation assay / cell survival, BxPC-3; assay type: cell-based, human; conditions: 10 μM, DGLA-enriched media, control 100%
Procedure: as §1

BxPC-3 cells = assay: 8-HOA formation from COX-2-catalyzed DGLA peroxidation (GC/MS) in BxPC-3; assay type: cell-based, human; conditions: 10 μM, DGLA-enriched media, control 0.26
Procedure: as §1

HCA-7 (colon cancer) = assay: Colony formation assay / cell survival, HCA-7; assay type: cell-based, human; conditions: for Cell Survival Rate: HCA-7/C29, DGLA-enriched media, control 100%
Procedure: as §1

A549 cells = assay: 8-HOA formation from COX-2-catalyzed DGLA peroxidation (GC/MS) in A549; assay type: cell-based, human; conditions: A549 (A-495 [sic]) cells; 10 μM; DGLA-enriched media; control 0.29
Procedure: as §1

[4] = every day, 4-week, DGLA 5 mg/mouse oral, iminodibenzyl 15 mg/kg i.p.
[5] = inhibition of D5D conversion of DGLA to AA, rat liver microsomes, read-out: IC50 (rat microsome)

T1 sequence (Q920R3 whole entry): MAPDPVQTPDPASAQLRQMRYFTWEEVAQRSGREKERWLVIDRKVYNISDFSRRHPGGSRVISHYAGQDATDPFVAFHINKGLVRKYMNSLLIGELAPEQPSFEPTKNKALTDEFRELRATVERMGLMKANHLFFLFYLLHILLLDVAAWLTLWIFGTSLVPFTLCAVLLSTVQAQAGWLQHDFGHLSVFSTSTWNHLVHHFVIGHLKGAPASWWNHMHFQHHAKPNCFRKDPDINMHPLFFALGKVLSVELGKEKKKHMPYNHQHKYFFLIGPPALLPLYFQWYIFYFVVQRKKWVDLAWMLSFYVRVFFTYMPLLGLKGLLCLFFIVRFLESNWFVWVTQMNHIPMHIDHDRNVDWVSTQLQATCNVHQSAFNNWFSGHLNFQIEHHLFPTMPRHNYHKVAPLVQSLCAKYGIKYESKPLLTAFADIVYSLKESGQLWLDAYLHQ

SMILES: CC(C)CCOc1ccc(N)cc1 [CP-24879, reference compound]
- [8-HOA] (HCA-7 cells) (HCA-7/C29 cells): 0.42 µM

- IC50 (D5D): 148 nM
SMILES: COc1cc(/C=C/C(=O)CC(=O)/C=C/c2ccc(O)c(OC)c2)ccc1O [Cucurmin, curcumin, reference compound]
- [8-HOA] (HCA-7 cells) (HCA-7/C29 cells): 0.43 µM

SMILES: CCCCC/C=C\C/C=C\C/C=C\CCCCCCC(=O)O [DGLA, dihomo-γ-linolenic acid]
- Tumor Growth Reduction % (vs. Control) (HCA-7 xenograft tumor; [4]): did not deliver any inhibitory effect on tumor growth
- [8-HOA] (HCA-7 xenograft tumor; [4]): 0.27 µg/g
- Primary Tumor size (mm^3) ([1]; Day 14, vehicle 128): 106 mm^3
- Primary Tumor size (mm^3) ([1]; Day 21, vehicle 916): 908 mm^3
- Primary Tumor size (mm^3) ([1]; Day 28, vehicle 2956): 2631 mm^3
- 8-HOA (μM) in Blood ([1]; Day 28): 0.31 µM
- Reduced Tumor Growth vs. V.C. ([1]; Day 28): unable to inhibit primary tumor growth
- mice that developed metastatic lung tumor [1]: All three mice in this group developed lung tumors
- Tumor Growth Reduction % (vs. Control) (A549 xenograft tumor): did not deliver any inhibitory effect on tumor growth
- [8-HOA] (A549 xenograft tumor): 0.22 µg/g

SMILES: Nc1ccn([C@@H]2O[C@H](CO)[C@@H](O)C2(F)F)c(=O)n1 [Gemcitabine]
- Tumor Growth Reduction % (vs. Control) (BxPC-3 xenograft tumor): 24%
- Tumor Growth Reduction % (vs. Control) (BxPC-3 xenograft tumor; listed as gemcitabine): ~24%

- IC50 (D5D; [5]): 104 nM
SMILES: c1ccc2c(c1)CCc1ccccc1N2 [Iminodibenzyl, 10,11-dihydro-5H-dibenz[b,f]azepine]
- Cell Survival Rate [2]: 22%
- Cell Survival Rate ([2]; listed as iminodibenyl): 22%
- [PGE2] in tumors after 4-week treatment (HCA-7 xenograft tumor; 15 mg/kg every day, vehicle control 2.0 μg/g): 1.6 µg/g
- [AA] in tumors after 4-week treatment (HCA-7 xenograft tumor; 15 mg/kg every day, vehicle control 3.5 μg/g): 2.2 µg/g
- Tumor Growth Reduction % (vs. Control) (HCA-7 xenograft tumor; [4]): 17%
- [8-HOA] (HCA-7 xenograft tumor; [4]): 0.07 µg/g
- Tumor Growth Reduction % (vs. Control) (HCA-7 xenograft tumor; every day, 4-week, DGLA 5 mg/mouse oral, iminodibenzyl 15 mg/kg i.p., listed as Iminodibenzly): 17%
- Cell Survival Rate [3]: 73%
- Cell Survival Rate ([3]; listed as iminodibenyl): 73%
- Primary Tumor size (mm^3) ([1]; Day 14, vehicle 128): 87 mm^3
- Primary Tumor size (mm^3) ([1]; Day 21, vehicle 916): 476 mm^3
- Lung tumor(s) per mouse ([1]; Day 21, metastatic lung tumors, 1 mouse, vehicle 4): 0
- Primary Tumor size (mm^3) ([1]; Day 28, vehicle 2956): 1153 mm^3
- 8-HOA (μM) in Blood ([1]; Day 28): 0.021 µM
- Reduced Tumor Growth vs. V.C. ([1]; Day 28, listed as Iminodibenzy, 15 mg/kg): 58%
- Reduced Tumor Growth vs. V.C. ([1]; Day 28, listed as iminodibenzyl, 15 mg/kg): 58%
- mice that developed metastatic lung tumor [1]: 1 of four mice
- [8-HOA] (BxPC-3 cells): 0.53 µM
- Tumor Growth Reduction % (vs. Control) (A549 xenograft tumor): 40%
- [8-HOA] (A549 xenograft tumor): 0.05 µg/g
- Tumor Growth Reduction % (vs. Control) (A549 xenograft tumor; listed as Iminodibenzly): 40%
- [PGE2] in tumors after 4-week treatment (A549 xenograft tumor; A549 tumor, 15 mg/kg every day, vehicle control 2.0 μg/g): 1.5 µg/g
- [AA] in tumors after 4-week treatment (A549 xenograft tumor; A549 tumor, 15 mg/kg every day, vehicle control 3.7 μg/g): 2.5 µg/g
- [8-HOA] (HCA-7 cells) (HCA-7/C29 cells): 0.65 µM
- [8-HOA] (HCA-7 cells) (HCA-7/C29 cells; listed as iminodibenzyl): > 0.5 µM and 0.65 µM
- Cell Survival Rate (HCA-7 (colon cancer); 10 μM): 66%
- Cell Survival Rate (HCA-7 (colon cancer); 10 μM, listed as iminodibenyl): 66%
- viability at 10 µM (HCA-7 (colon cancer); Homo sapiens, HCA-7, 48 h, read-out: cell viability): ~66%
- [8-HOA] (A549 cells): 0.83 µM

SMILES: C1=Cc2ccccc2Nc2ccccc21 [Iminostilbene, 5H-dibenz[b,f]azepine]
- [8-HOA] (HCA-7 cells) (HCA-7/C29 cells): did not promote 8-HOA formation
- suppression of cancer cell growth (HCA-7 (colon cancer); 10 μM, colon cancer cells): unable to suppress cancer cell growth

SMILES: O=c1[nH]cc(F)c(=O)[nH]1 [Molecule 5-FU, 5-fluorouracil, reference compound]
- Tumor Growth Reduction % (vs. Control) (HCA-7 xenograft tumor; twice/week up to 4-week, 5-FU 30 mg/kg, DGLA 8 mg/mouse, iminodibenzyl 25 mg/kg): 29%

SMILES: c1cc2c(cc1[C@H]1OC[C@H]3[C@@H]1CO[C@@H]3c1ccc3c(c1)OCO3)OCO2 [Sesame, sesamin, reference compound]
- [8-HOA] (HCA-7 cells) (HCA-7/C29 cells): 0.33 µM
- IC50 (D5D; [5]): 346 nM
